The results in this text go back to patent publication US12038445B2, “Liver disease-related biomarkers and methods of use thereof” (Human Metabolomics Institute, Inc., priority 2016, dated 2024).

Each structure is given as a SMILES string. “Also recorded” adds a separate entry of the source.

The subject of data set [1] is WRL-68. Kind of data set: Cell proliferation after BA treatment, WRL-68. Format: cell-based, human. The note with it: BA treatment 14 days in high glucose (27.5 mM) and oleic acid (0.3 mM). As for the experimental part: (§1) Normal human hepatic cell lines WRL-68 and THLE-2 were purchased from Sigma. For BA treatment, cells were harvested, rinsed twice in PBS, resuspended in sugar-free DMEM (Life Technologies) supplemented with 10% charcoal-stripped FBS and seeded into 6-well plate at a density of 5×10^4/well. […] After 14 days treatment, normal medium (DMEM-F12 containing 10% FBS) were added into each well to replace the spent media. Cell proliferation and anchorage-independent growth assays were performed in the normal medium. Additionally, western blot assay was performed to analyze the alteration of oncoprotein c-myc expression.

A short description of data set [2]: Male mice treated with STZ alone. Format: in vivo. The note with it: male mice treated with STZ alone for 20 weeks.
The test system of another data set is THLE-2. Briefly: Cell proliferation after BA treatment, THLE-2. Format: cell-based, human. The note with it: BA treatment 14 days in high glucose (27.5 mM) and oleic acid (0.3 mM). The procedure:
as §1

The test system of a further data set is HepG2. Kind of data set: Cell proliferation after BA treatment, HepG2. The note with it: BA treatment 14 days, 100 μM. Format: cell-based, human. As for the experimental part: (§2) Human cancer cell line, HepG2, was purchased from Sigma and maintained in DMEM-F12 (Life Technologies) supplemented with 10% fetal bovine serum (FBS, Life Technologies). For BA treatment, cells were harvested, rinsed twice with PBS, seeded in sugar-free DMEM (Life Technologies) supplemented with 10% charcoal-stripped FBS and 6 mM glucose. […] The spent media was replaced by fresh normal medium (DMEM-F12 containing 10% FBS) 14 days later. And then cells were used for cell proliferation assay and western blot analysis for the tumor suppressor protein CEBPa.

For the next data set, the system named is c-myc. Briefly: Western blot of oncoprotein c-myc in WRL-68 cells. Format: cell-based, human. The procedure: as §1, with “5×10^4/well. We set the glucose (Glc, Sigma) at 27.5 mM and Oleic acid (OA, Sigma) at 0.3 mM to mimic high glucose and fat conditions in vitro.” for “5×10^4/well.”
(§3) Primary antibodies for c-myc (Santa Cruz), CEBPa (Santa Cruz) and Actin (Li-cor) were purchased and used with a diluted concentration as indicated by the manufacturers.
A general note: Immunoblotting shows a protein as a band on a membrane.

In data set [3] the test system is WRL-68. Kind of data set: Anchorage-independent growth assay, WRL-68. The note with it: BA treatment under high glucose and high fat condition. Format: cell-based, human. As for the experimental part: as §1, with “5×10^4/well. We set the glucose (Glc, Sigma) at 27.5 mM and Oleic acid (OA, Sigma) at 0.3 mM to mimic high glucose and fat conditions in vitro.” for “5×10^4/well.”

A further data set concerns CEBPα. Kind of data set: Western blot of tumor suppressor protein CEBPα in HepG2 cells. Format: cell-based, human. The procedure: as §2, §3

In the case of `CC(CCC(=O)NCC(=O)O)C1CCC2C3C(O)CC4CC(O)CCC4(C)C3CCC12C` (centres unmarked) [GCDCA, glycochenodeoxycholic acid], the WRL-68 proliferation entry in the data set on WRL-68 [1] is “very little influence”.

Regarding `CN(N=O)C(=O)N[C@H]1C(O)O[C@H](CO)[C@@H](O)[C@@H]1O` (mixture of isomers) [STZ, streptozotocin], the HCC formation entry in data set [2] is on record as “no HCC was observed”.

With `C[C@H](CCC(=O)O)[C@H]1CC[C@H]2[C@@H]3[C@H](O)C[C@@H]4C[C@H](O)CC[C@]4(C)[C@H]3C[C@H](O)[C@]12C` [CA, cholic acid], the THLE-2 proliferation entry in the data set on THLE-2 is listed as “significantly promoted”. For the same molecule, in the data set on WRL-68 [1], the WRL-68 proliferation result is “significantly promoted”. In the data set with HepG2, the HepG2 cell proliferation result is listed as “significantly promoted”.

Take `C[C@H](CCC(=O)O)[C@H]1CC[C@H]2[C@@H]3CC[C@@H]4C[C@H](O)CC[C@]4(C)[C@H]3C[C@H](O)[C@]12C` [DCA, deoxycholic acid]: the THLE-2 proliferation entry in the data set on THLE-2 is listed as “significantly promoted”. Besides, the WRL-68 proliferation entry in the data set on WRL-68 [1] is “significantly promoted”. Further, the “expression of oncoprotein c-myc” value in the data set with c-myc is recorded as “increased”. Moreover, in the data set with HepG2, the HepG2 cell proliferation result is “significantly promoted”. For the same molecule, in the data set on WRL-68 [3], the “anchorage-independent growth of WRL-68 compared to those treated with high glucose and high fat” value was “significantly increased”; the “anchorage-independent growth of WRL-68 compared with parental cells” value is reported as “didn't enhance”.

As for `C[C@H](CCC(=O)NCCS(=O)(=O)O)[C@H]1CC[C@H]2[C@@H]3[C@H](O)C[C@@H]4C[C@H](O)CC[C@]4(C)[C@H]3CC[C@]12C` [TCDCA, taurochenodeoxycholic acid], the THLE-2 proliferation result with THLE-2 was “significantly promoted”. Moreover, the “expression of tumor suppressor gene CEBPα” value with CEBPα is recorded as “reduced”. The WRL-68 proliferation result in the data set on WRL-68 [1] is recorded as “significantly promoted”. Besides, the “expression of oncoprotein c-myc” value in the data set on c-myc is given as “increased”. Also, the HepG2 cell proliferation entry in the data set on HepG2 was “significantly promoted; also recorded: markedly increased”.

As to `C[C@H](CCC(=O)NCCS(=O)(=O)O)[C@H]1CC[C@H]2[C@@H]3[C@H](O)C[C@@H]4C[C@H](O)CC[C@]4(C)[C@H]3C[C@H](O)[C@]12C` [TCA, taurocholic acid], in the data set with WRL-68 [1], the WRL-68 proliferation result is listed as “very little influence”.
